Columns and labels:
Test in all cases: relative viability (nuclei count vs DMSO), 5 days (fraction); higher = more cells survive
[1] = system: A-427
Method in brief: (§1)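 Lung cancer cell lines were pin-tool dosed in 1536-well plates on the day after seeding, with either a lone drug or a fixed anchor-drug dose plus five library-drug doses (not always all listed) in √10 steps. Nuclei were counted on 4× images after 5 days. Relative viability is the ratio of treated-well to vehicle-well nuclei counts, with each value a median of duplicate plates.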

[2] = system: BEN
Method in brief: as §1

[3] = system: COR-L23
Method in brief: as §1

[4] = system: EKVX
Method in brief: as §1

[5] = system: HARA
Method in brief: as §1

[6] = system: LC-2-ad
Method in brief: as §1

[7] = system: LOU-NH91
Method in brief: as §1

[8] = system: LU99A
Method in brief: as §1

[9] = system: NCI-H1650
Method in brief: as §1

[10] = system: NCI-H1666
Method in brief: as §1

[11] = system: NCI-H1793
Method in brief: as §1

[12] = system: NCI-H1915
Method in brief: as §1

[13] = system: NCI-H1944
Method in brief: as §1

[14] = system: NCI-H2087
Method in brief: as §1

[15] = system: NCI-H2170
Method in brief: as §1

[16] = system: NCI-H2228
Method in brief: as §1

[17] = system: NCI-H3122
Method in brief: as §1

[18] = system: NCI-H322M
Method in brief: as §1

[19] = system: NCI-H520
Method in brief: as §1

[20] = system: NCI-H727
Method in brief: as §1

[21] = system: PC-14
Method in brief: as §1

[22] = system: PC-3 [JPC-3]
Method in brief: as §1

[23] = system: SK-LU-1
Method in brief: as §1

## Oc1nc(-c2ccc(C(F)(F)F)cc2)nc2c1CSCC2 [XAV939] + CC1(C)CCC(c2ccc(Cl)cc2)=C(CN2CCN(c3ccc(C(=O)NS(=O)(=O)c4ccc(N[C@H](CCN5CCOCC5)CSc5ccccc5)c(S(=O)(=O)C(F)(F)F)c4)cc3)CC2)C1 [Navitoclax] (partner 0.5 µM)
[1]; first compound 0.08 µM
  relative viability: 1.03
[1]; first compound 0.253 µM
  relative viability: 0.989
[1]; first compound 0.8 µM
  relative viability: 0.9
[1]; first compound 2.53 µM
  relative viability: 0.809
[2]; first compound 0.08 µM
  relative viability: 0.0604
[2]; first compound 0.253 µM
  relative viability: 0.0746
[2]; first compound 0.8 µM
  relative viability: 0.0568
[3]; first compound 0.08 µM
  relative viability: 1
[3]; first compound 0.253 µM
  relative viability: 0.855
[3]; first compound 0.8 µM
  relative viability: 0.948
[3]; first compound 2.53 µM
  relative viability: 0.892
[4]; first compound 0.08 µM
  relative viability: 1.02
[4]; first compound 0.253 µM
  relative viability: 0.814
[4]; first compound 0.8 µM
  relative viability: 0.57
[4]; first compound 2.53 µM
  relative viability: 0.557
[5]; first compound 0.08 µM
  relative viability: 1.15
[5]; first compound 0.253 µM
  relative viability: 0.609
[5]; first compound 0.8 µM
  relative viability: 1.17
[5]; first compound 2.53 µM
  relative viability: 1.17
[6]; first compound 0.08 µM
  relative viability: 0.389
[6]; first compound 0.253 µM
  relative viability: 0.429
[6]; first compound 0.8 µM
  relative viability: 0.6
[6]; first compound 2.53 µM
  relative viability: 0.428
[7]; first compound 0.08 µM
  relative viability: 0.636
[7]; first compound 0.253 µM
  relative viability: 0.627
[7]; first compound 0.8 µM
  relative viability: 0.692
[7]; first compound 2.53 µM
  relative viability: 0.652
[8]; first compound 0.08 µM
  relative viability: 0.939
[8]; first compound 0.253 µM
  relative viability: 0.708
[8]; first compound 0.8 µM
  relative viability: 0.683
[8]; first compound 2.53 µM
  relative viability: 0.708
[9]; first compound 0.08 µM
  relative viability: 1.18
[9]; first compound 0.253 µM
  relative viability: 1.25
[9]; first compound 0.8 µM
  relative viability: 1.05
[9]; first compound 2.53 µM
  relative viability: 0.653
[10]; first compound 0.08 µM
  relative viability: 0.847
[10]; first compound 0.253 µM
  relative viability: 0.721
[10]; first compound 0.8 µM
  relative viability: 0.903
[10]; first compound 2.53 µM
  relative viability: 0.469
[11]; first compound 0.08 µM
  relative viability: 0.593
[11]; first compound 0.253 µM
  relative viability: 0.442
[11]; first compound 0.8 µM
  relative viability: 0.369
[11]; first compound 2.53 µM
  relative viability: 0.452
[12]; first compound 0.08 µM
  relative viability: 0.813
[12]; first compound 0.253 µM
  relative viability: 0.793
[12]; first compound 0.8 µM
  relative viability: 0.769
[12]; first compound 2.53 µM
  relative viability: 0.792
[13]; first compound 0.08 µM
  relative viability: 1.07
[13]; first compound 0.253 µM
  relative viability: 0.986
[13]; first compound 0.8 µM
  relative viability: 1.01
[13]; first compound 2.53 µM
  relative viability: 1.1
[14]; first compound 0.08 µM
  relative viability: 1.13
[14]; first compound 0.253 µM
  relative viability: 0.668
[14]; first compound 0.8 µM
  relative viability: 1
[14]; first compound 2.53 µM
  relative viability: 0.95
[15]; first compound 0.08 µM
  relative viability: 0.427
[15]; first compound 0.253 µM
  relative viability: 0.441
[15]; first compound 0.8 µM
  relative viability: 0.501
[15]; first compound 2.53 µM
  relative viability: 0.422
[16]; first compound 0.08 µM
  relative viability: 1.13
[16]; first compound 0.253 µM
  relative viability: 0.838
[16]; first compound 0.8 µM
  relative viability: 0.94
[16]; first compound 2.53 µM
  relative viability: 1.1
[17]; first compound 0.08 µM
  relative viability: 1.03
[17]; first compound 0.253 µM
  relative viability: 1.04
[17]; first compound 0.8 µM
  relative viability: 1.04
[17]; first compound 2.53 µM
  relative viability: 0.886
[18]; first compound 0.08 µM
  relative viability: 1.26
[18]; first compound 0.253 µM
  relative viability: 0.748
[18]; first compound 0.8 µM
  relative viability: 1.21
[18]; first compound 2.53 µM
  relative viability: 1.03
[19]; first compound 0.08 µM
  relative viability: 1.21
[19]; first compound 0.253 µM
  relative viability: 0.988
[19]; first compound 0.8 µM
  relative viability: 0.861
[19]; first compound 2.53 µM
  relative viability: 0.885
[20]; first compound 0.08 µM
  relative viability: 0.407
[20]; first compound 0.253 µM
  relative viability: 0.231
[20]; first compound 0.8 µM
  relative viability: 0.362
[20]; first compound 2.53 µM
  relative viability: 0.44
[21]; first compound 0.08 µM
  relative viability: 1.04
[21]; first compound 0.253 µM
  relative viability: 0.906
[21]; first compound 0.8 µM
  relative viability: 1.03
[21]; first compound 2.53 µM
  relative viability: 0.956
[22]; first compound 0.08 µM
  relative viability: 0.728
[22]; first compound 0.253 µM
  relative viability: 0.737
[22]; first compound 0.8 µM
  relative viability: 0.814
[22]; first compound 2.53 µM
  relative viability: 0.724
[23]; first compound 0.08 µM
  relative viability: 0.674
[23]; first compound 0.253 µM
  relative viability: 0.9
[23]; first compound 0.8 µM
  relative viability: 0.714
[23]; first compound 2.53 µM
  relative viability: 0.791

Source: the supplement of paper PMC10307832
